Measurements as given in ChEMBL document CHEMBL1146573, “Antioxidant activity of a new capsaicin derivative from Capsicum annuum” (J Nat Prod, 2003).

Test: Antioxidant activity in egg yolk liposomes assessed as inhibition of ADP/Fe(2+)-induced lipid peroxidation after 15 mins by TBARS method
Type: functional

Row | Compound | IC50
1 | COc1cc(CNC(=O)CCCC/C=C/C(C)C)cc(-c2cc(CNC(=O)CCCCCCC(C)C)cc(OC)c2O)c1O | > 10 µM
2 | Cc1c(C)c2c(c(C)c1O)CC[C@@](C)(CCC[C@H](C)CCC[C@H](C)CCCC(C)C)O2 [ALPHA-TOCOPHEROL] | 250 µM
